Here are results for one molecule from US20190231822A1, “METHODS OF REDUCING CHRONIC GRAFT-VERSUS-HOST DISEASE” (Regents of the University of Minnesota, priority 2016, published 2019).

In the test the test system is cGVHD. In words: cGVHD prevention or reversal by an iNKT agonist. The test is classed as in vivo. The note with it: intravascular administration.

As to `CCCCCCCCCCCCCCCCCCCCCCCCCC(=O)N[C@@H](CO[C@H]1O[C@H](CO)[C@H](O)[C@H](O)[C@H]1O)[C@H](O)[C@H](O)CCCCCCCCCCCCCC` [alpha-galactosylceramide], the “prevention or reversal of cGVHD” value is listed as “able to prevent or reverse cGVHD”.
